Source: PubChem BioAssay (NCI)
“And” between values parts separate entries of the source, which are not always exact repeats. Identical values can stand only once.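 Interpolation was linear, between the two tested concentrations surrounding the appropriate level; five concentrations were tested over 48 hours in 96-well plates. GI50: concentration for 50% inhibition of growth. TGI: concentration producing complete growth inhibition.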

How the values were obtained:
Experiment in all cases: NCI tumour cell line growth inhibition, 48 h
OVCAR-4 ovarian = test system: OVCAR-4 ovarian
EKVX NSCLC = test system: EKVX NSCLC
LOX IMVI melanoma = test system: LOX IMVI melanoma
K-562 leukemia = test system: K-562 leukemia
SW-620 colon = test system: SW-620 colon
RXF 393 renal = test system: RXF 393 renal
COLO 205 colon = test system: COLO 205 colon
NCI-H226 lung = test system: NCI-H226 lung
SF-295 CNS = test system: SF-295 CNS
UO-31 renal = test system: UO-31 renal
NCI-H23 lung = test system: NCI-H23 lung
M14 melanoma = test system: M14 melanoma

SMILES	GI50 (OVCAR-4 ovarian)	TGI (OVCAR-4 ovarian)	GI50 (EKVX NSCLC)	TGI (EKVX NSCLC)	GI50 (LOX IMVI melanoma)	TGI (LOX IMVI melanoma)	GI50 (K-562 leukemia)	TGI (K-562 leukemia)	GI50 (SW-620 colon)	TGI (SW-620 colon)	TGI (RXF 393 renal)	GI50 (COLO 205 colon)	TGI (COLO 205 colon)	GI50 (NCI-H226 lung)	TGI (NCI-H226 lung)	TGI (SF-295 CNS)	TGI (UO-31 renal)	GI50 (NCI-H23 lung)	TGI (NCI-H23 lung)	TGI (M14 melanoma)
COCC(=O)OC1CCn2c1nc1c2C(=O)C(C)=C(NC(C)=O)C1=O (centres undefined)	1.43 µM	2.79 µM and 4.25 µM	3.75 µM	20.3 µM	2.81 µM	13.2 µM	3.23 µM	11.9 µM	3.43 µM	19.8 µM	5.9 µM and 7.55 µM	8.72 µM	29.9 µM	9.33 µM	23.5 µM	31.7 µM	26.2 µM	3.23 µM	22.5 µM	21.7 µM
C[C@@H]1C(=O)CC2(O)[C@@]13C[C@@H](OC(=O)[C@@H]3O)[C@@H](C)[C@@]21COC1=O (some centres undefined)	–	> 100 µM	–	> 100 µM	–	> 100 µM	–	> 100 µM	–	> 100 µM	> 100 µM	–	> 100 µM	–	> 100 µM	> 100 µM	> 100 µM	–	> 100 µM	> 100 µM
CC(C)(C)OC(=O)c1ccc(NCc2cc(O)ccc2O)cc1	–	5.59 µM	–	12 µM	–	13.5 µM	–	38.1 µM	–	14.5 µM	3.35 µM	–	5.48 µM	–	8.64 µM	29.3 µM	2.51 µM	–	16.8 µM	7.35 µM
C=C1CC=CC(C)(C)C1C/C=C(\C)C(O)CBr (centres undefined)	–	> 100 µM	–	> 100 µM	–	53.5 µM	–	> 100 µM	–	97.4 µM	> 100 µM	–	> 100 µM	–	> 100 µM	> 100 µM	> 100 µM	–	> 100 µM	> 100 µM
COc1cc(/C=C/c2cc(=O)cc(/C=C/c3ccc(O)c(OC)c3)o2)ccc1O	–	> 100 µM	–	> 100 µM	–	> 100 µM	–	> 100 µM	–	> 100 µM	> 55.2 µM	–	> 100 µM	–	98.3 µM	> 100 µM	> 100 µM	–	> 100 µM	> 100 µM
CCN(C(=O)N[C@H](C(=O)N[C@@H](C)C(=O)OC)C(C)C)c1ccccc1	–	> 100 µM	–	> 100 µM	–	> 100 µM	–	> 100 µM	–	> 100 µM	> 100 µM	–	43.4 µM	–	> 100 µM	> 100 µM	> 100 µM	–	> 100 µM	> 100 µM
Brc1ccc2c(c1)-c1nc3c(cc1CC2)CCc1ccc(Br)cc1-3	–	> 100 µM	–	> 100 µM	–	> 100 µM	–	> 100 µM	–	> 100 µM	> 100 µM	–	> 100 µM	–	> 100 µM	> 100 µM	> 100 µM	–	> 100 µM	> 100 µM
CC(C)Cc1c(C#N)c(C#N)c(N)n1Cc1ccccc1	–	> 100 µM	–	> 100 µM	–	> 100 µM	–	> 100 µM	–	> 100 µM	> 100 µM	–	> 100 µM	–	> 100 µM	> 100 µM	> 100 µM	–	> 100 µM	> 100 µM
CC/C=C\C/C=C\C/C=C\CCCCCCCC(=O)OC(COC(=O)CCCCCCCCCCCCCCCCC)COC1OC(CO)C(O)C(O)C1O (centres undefined)	–	> 25 µM	–	> 25 µM	–	> 25 µM	–	> 25 µM	–	> 25 µM	> 25 µM	–	> 25 µM	–	> 25 µM	> 25 µM	> 25 µM	–	> 25 µM	> 25 µM
COC(=O)C1=C(C(=O)OC)C2(C)CCC(=O)C1O2 (centres undefined)	–	> 10 µM	–	> 10 µM	–	> 10 µM	–	> 10 µM	–	> 10 µM	> 10 µM	–	> 10 µM	–	> 10 µM	> 10 µM	> 10 µM	–	> 10 µM	> 10 µM
COC(=O)c1sc2ncc3c(c2c1N)CC(C)CC3 (centres undefined)	–	> 100 µM	–	> 100 µM	–	> 100 µM	–	> 100 µM	–	> 100 µM	> 100 µM	–	> 100 µM	–	> 100 µM	> 100 µM	> 100 µM	–	> 100 µM	> 100 µM
O=[N+]([O-])c1ccc2nc3c(nc2c1)-c1c2ccccc2cc2cccc-3c12	–	> 100 µM	–	> 100 µM	–	> 23.6 µM	–	> 85.9 µM	–	> 100 µM	63.6 µM	–	> 100 µM	–	> 100 µM	59.5 µM	> 70.9 µM	–	24.5 µM	> 91.7 µM
Cc1ccc(C(=O)c2[nH]c(Nc3cc(C)ccn3)c(C(=S)Nc3ccccc3)c2N)cc1	–	> 100 µM	–	> 100 µM	–	> 100 µM	–	> 100 µM	–	> 100 µM	> 100 µM	–	> 100 µM	–	> 100 µM	> 100 µM	> 100 µM	–	> 100 µM	> 100 µM
O=S1(=O)c2ccccc2NC(=S)N1c1ccccc1	–	> 100 µM	–	> 100 µM	–	> 66.1 µM	–	> 100 µM	–	> 100 µM	> 100 µM	–	> 100 µM	–	> 100 µM	> 100 µM	> 100 µM	–	> 100 µM	> 100 µM
Cc1ccc(-n2cc(-c3ccc(Cl)cc3)c3c2N=CN2NC(c4ccco4)=NC32)cc1 (centres undefined)	–	4.03 µM	–	> 100 µM	–	> 100 µM	–	> 100 µM	–	> 100 µM	30.7 µM	–	> 100 µM	–	68.6 µM	27.8 µM	47.5 µM	–	72.4 µM	> 100 µM
CN1c2ccccc2C(=O)NC12CCN(CC1COc3ccccc3O1)CC2 (centres undefined)	–	> 100 µM	–	> 100 µM	–	> 100 µM	–	> 100 µM	–	> 100 µM	> 100 µM	–	> 100 µM	–	87.4 µM	> 100 µM	> 100 µM	–	> 100 µM	> 100 µM
CCOC1NC(=O)c2ccccc21 (centres undefined)	–	> 100 µM	–	> 100 µM	–	> 100 µM	–	> 100 µM	–	> 100 µM	> 100 µM	–	> 100 µM	–	> 100 µM	> 100 µM	> 100 µM	–	> 100 µM	> 100 µM
CN(C)c1nc(=NCc2ccccn2)ss1	–	> 10 µM	–	> 10 µM	–	6.46 µM	–	> 9.63 µM	–	> 10 µM	> 10 µM	–	> 10 µM	–	> 10 µM	> 10 µM	> 10 µM	–	> 10 µM	> 10 µM
